In publication PMC8001788, “Decursin Alleviates Mechanical Allodynia in a Paclitaxel-Induced Neuropathic Pain Mouse Model” (Cells, 2021):

Molecular target: transient receptor potential vanilloid 1 (TRPV1) (Homo sapiens, UniProt Q8NER1)
Assay: Fura-2 calcium imaging of capsaicin-induced Ca2+ in human TRPV1 stable HEK293 cells
Format: cell-based

transient receptor potential vanilloid 1 (TRPV1), sequence (Q8NER1 whole entry): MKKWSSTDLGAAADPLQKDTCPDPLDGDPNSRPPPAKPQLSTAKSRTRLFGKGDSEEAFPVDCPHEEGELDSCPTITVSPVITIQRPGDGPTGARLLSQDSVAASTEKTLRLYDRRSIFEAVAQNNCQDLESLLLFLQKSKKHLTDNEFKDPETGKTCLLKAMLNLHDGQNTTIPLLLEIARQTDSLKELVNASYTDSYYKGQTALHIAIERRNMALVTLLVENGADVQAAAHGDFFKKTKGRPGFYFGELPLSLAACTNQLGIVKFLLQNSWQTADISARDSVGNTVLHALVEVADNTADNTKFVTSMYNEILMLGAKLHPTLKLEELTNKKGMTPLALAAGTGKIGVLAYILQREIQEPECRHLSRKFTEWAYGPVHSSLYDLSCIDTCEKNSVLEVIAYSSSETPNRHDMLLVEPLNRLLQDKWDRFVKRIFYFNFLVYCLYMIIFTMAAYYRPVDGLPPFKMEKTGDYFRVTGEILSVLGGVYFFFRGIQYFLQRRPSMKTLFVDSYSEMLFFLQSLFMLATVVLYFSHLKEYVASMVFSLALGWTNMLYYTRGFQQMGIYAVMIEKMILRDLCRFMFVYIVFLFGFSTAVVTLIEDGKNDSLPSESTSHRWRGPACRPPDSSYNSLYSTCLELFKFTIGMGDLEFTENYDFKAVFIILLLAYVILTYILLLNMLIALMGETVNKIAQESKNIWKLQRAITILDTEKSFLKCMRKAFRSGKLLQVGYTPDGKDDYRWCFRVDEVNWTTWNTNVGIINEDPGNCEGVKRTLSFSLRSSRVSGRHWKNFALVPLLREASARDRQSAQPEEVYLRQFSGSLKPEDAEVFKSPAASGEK

IC50: 690 ± 105 nM
Compound: CC(C)=CC(=O)O[C@H]1Cc2cc3ccc(=O)oc3cc2OC1(C)C [decursin]
